From publication PMC10080691, “Enzyme-Responsive Double-Locked Photodynamic Molecular Beacon for Targeted Photodynamic Anticancer Therapy” (Journal of the American Chemical Society, 2023)

How the values were obtained:
MMP-2 = target: T1, MMP-2 (Homo sapiens, UniProt P08253); test: MMP-2-responsive fluorescence activation and cleavage (LC-MS); type: biochemical; settings: 1 μM; for on/off ratio (fluorescence intensity at 25 h / initial intensity): MMP-2 only (2 μg mL-1), PBS pH 7.4, 0.1% Tween 80, 37 °C
T1 sequence (P08253 110-660): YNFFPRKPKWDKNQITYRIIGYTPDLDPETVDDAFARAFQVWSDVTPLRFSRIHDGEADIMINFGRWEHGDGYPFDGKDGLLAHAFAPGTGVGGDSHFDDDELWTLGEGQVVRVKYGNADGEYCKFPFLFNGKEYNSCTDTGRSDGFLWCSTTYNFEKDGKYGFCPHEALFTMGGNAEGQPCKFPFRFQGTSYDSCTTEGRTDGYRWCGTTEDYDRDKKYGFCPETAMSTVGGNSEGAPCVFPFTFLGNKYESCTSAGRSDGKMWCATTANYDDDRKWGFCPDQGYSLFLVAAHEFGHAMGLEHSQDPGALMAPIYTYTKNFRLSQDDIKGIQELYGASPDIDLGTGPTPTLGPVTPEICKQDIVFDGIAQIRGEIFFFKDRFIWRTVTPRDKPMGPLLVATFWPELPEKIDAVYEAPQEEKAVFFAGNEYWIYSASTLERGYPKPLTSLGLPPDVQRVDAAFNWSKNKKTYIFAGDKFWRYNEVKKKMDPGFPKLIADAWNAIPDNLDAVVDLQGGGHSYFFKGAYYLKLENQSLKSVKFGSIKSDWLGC
Description: To examine the response of PMB 1 toward MMP-2 and cathepsin B, its absorption and fluorescence spectra were monitored in the presence of these stimuli at 37 °C over a period of 25 h, using the non-cleavable analogue 14 as the negative control. For studying the MMP-2-responsive effect, MMP-2 (2 μg mL^–1) in PBS at pH 7.4 was used to mimic the high serum levels of this enzyme in patients with cancer.[68] The effect of cathepsin B (using a concentration of 1 unit mL^–1) was studied in the working buffer mentioned above at pH 5.0 to mimic the lysosomal environment.[69] […] Similar results were obtained for the study using cathepsin B in the buffer (Figure S8e–h). […] The more flexible ring-opening structure, however, might slightly increase the separation of the two moieties, leading to a lower FRET efficiency,[70] which could explain the small increase in fluorescence intensity. For comparison, the effect of these enzymes was also studied for 14. As expected, both the absorption and fluorescence spectra were not changed toward these two enzymes (Figure S9).
The fluorescence recovery was then determined for 1 under the aforementioned conditions, assuming that the fluorescence intensity of 8 at the same concentration in the same medium was the maximum fluorescence intensity that could be recovered. […] In addition, we also determined the corresponding on/off ratios by dividing the fluorescence intensity at 25 h by the initial fluorescence intensity under each of these conditions. […]
To further confirm that the restoration of fluorescence emission and singlet oxygen generation of PMB 1 was due to the cleavage by the enzymes, LC–MS was used to analyze the reaction mixtures (Figure 4). […] Similarly, for the mixture obtained after treating 1 (1 μM) with cathepsin B (1 unit mL^–1) in the working buffer at pH 5.0 for 6 h, a new signal with virtually the same retention time was detected in the chromatogram (Figure 4a–c). […]
All of the solutions were stirred continuously at 37 °C. The ir electronic absorption and fluorescence spectra were monitored over a period of 25 h. […]

[1] = Fluorescence quantum yield in DMF; type: physicochemical; settings: excited at 610 nm, relative to ZnPc (ΦF = 0.28 in DMF)
From the text: The electronic absorption and fluorescence spectra of PMB 1 were first recorded in DMF and compared with those of the components 8 and 11, as well as the non-cleavable analogue 14 (Figure S2 and Table 1). […] In contrast, the fluorescence spectra of 1 and 14 were remarkably different from that of DSBDP 8.

| SMILES | LC-MS signal of intact compound after enzyme treatment (MMP-2; MMP-2 (2 μg mL-1) in PBS, 6 h, new signal at 14.7 min (15)) | on/off ratio (fluorescence intensity at 25 h / initial intensity) (MMP-2) | ΦF (fluorescence quantum yield) [1] |
| --- | --- | --- | --- |
| CCN(CC)c1ccc2nc3ccc(/N=N/c4ccc(N(C)CCCNC(=O)OC[C@@H]5[C@@H]6CCc7nnn(CC(=O)NCCCC[C@@H]8NC(=O)CNC(=O)[C@H](CCCCN)NC(=O)[C@H](CCCNC(=N)N)NC(=O)[C@H](C(C)C)NC(=O)CNC(=O)[C@H](CC(C)C)NC(=O)[C@@H]9CCCN9C(=O)[C@H](CCCCN)NC(=O)[C@@H](N)CSCc9cc(COc%10ccc(C%11=C%12C(C)=C(I)C(/C=C/c%13ccc(OCCOCCOCCOC)cc%13)=[N+]%12[B-](F)(F)n%12c(/C=C/c%13ccc(OCCOCCOCCOC)cc%13)c(I)c(C)c%12%11)cc%10)cc(c9)CSC[C@@H](C(N)=O)NC(=O)[C@H](CCCCN)NC(=O)[C@H](CCCCN)NC(=O)CNC(=O)[C@H](CC(C)C)NC(=O)[C@H](Cc9ccccc9)NC(=O)CNC(=O)[C@H](CCCCN)NC(=O)CNC8=O)c7CC[C@@H]65)cc4)cc3[n+](-c3ccccc3)c2c1 [compound 1] | disappeared | ca. 2.7 | 0.01 |
| CCN(CC)c1ccc2nc3ccc(/N=N/c4ccc(N(C)CCCNC(=O)OC[C@@H]5[C@@H]6CCc7nnn(CC(=O)NCCCC[C@@H]8NC(=O)CNC(=O)[C@H](CCCCN)NC(=O)CNC(=O)CNC(=O)CNC(=O)CNC(=O)CNC(=O)[C@H](CCCCN)NC(=O)[C@@H](N)CSCc9cc(COc%10ccc(C%11=C%12C(C)=C(I)C(/C=C/c%13ccc(OCCOCCOCCOC)cc%13)=[N+]%12[B-](F)(F)n%12c(/C=C/c%13ccc(OCCOCCOCCOC)cc%13)c(I)c(C)c%12%11)cc%10)cc(c9)CSC[C@@H](C(N)=O)NC(=O)[C@H](CCCCN)NC(=O)[C@H](CCCCN)NC(=O)CNC(=O)CNC(=O)CNC(=O)CNC(=O)[C@H](CCCCN)NC(=O)CNC8=O)c7CC[C@@H]65)cc4)cc3[n+](-c3ccccc3)c2c1 [compound 14] | – | below 1.5 | 0.01 |
